Source: patent publication US10183908B2, “Compositions for the treatment of kidney and/or liver disease” (VECTUS BIOSYSTEMS LIMITED, priority 2015, dated 2019)

Legend:
[1] = system: A10 embryonic vascular smooth muscle cells; experiment: xCELLigence cell impedance in A10 vascular smooth muscle cells; type: cell-based; settings: test compounds at 62.5, 125 or 250 μM; FIG. 8; negative response = direct vasodilator
Excerpt: The xCELLigence SP system (Roche) was used to measure changes in cellular impedance (cell index) following the treatment of A10 embryonic vascular smooth muscle cells (ATCC, CRL-1476) with test compound. In this in vitro cell based experimental system a negative impedance profile correlates with blood pressure reduction in rats—a decrease in impedance is associated with vasodilatation and an increase in impedance is associated with vasoconstriction (Stallaert W, Dorn J F, van der Westhuizen E, Audet M & Bouvier M. Impedance responses reveal β-adrenergic signaling […] and allow classification of ligands with distinct signalling profiles PLoS ONE 2012; 7(1):e29420, doi:10.1371/journal.pone.0029420).
(§1) Briefly, 50 μl of cell culture medium (DMEM low glucose supplemented with 10% fetal bovine serum at 37° C.) was added to each well of an E-Plate 96 (Roche), and the background impedance in each well was measured. 50 μl of A-10 cell suspension (10,000 cells/well) was then added to the appropriate wells of the E-Plate 96. Cell index was monitored for each well of the E-Plate 96 in RTCA SP Station within the cell culture incubator. After overnight incubation for 16-20 hours at 5% CO2 and 95% humidity, 100 μl of test compound solution (test compounds were prepared in DMSO and diluted with cell culture medium to a final DMSO concentration of 0.25%) was added to the appropriate wells of the E-Plate 96 and cell index values were measured immediately following compound treatment every 20 seconds for 3 hours. Cell index value is baseline-corrected by subtracting the cell index of vehicle-treated cells and normalized by dividing by the cell index at the time point immediately before compound addition. Baseline normalized cell index as a function of time is plotted using Roche RTCA software.
Compounds may achieve reductions in blood pressure by interaction with vascular smooth muscle cells causing these cells to relax resulting in vasodilatation and a reduction in blood pressure. These are termed direct vasodilators.

[2] = system: bovine aortic endothelial cells; experiment: xCELLigence cell impedance in bovine aortic endothelial cells; type: cell-based; settings: test compounds at 62.5, 125 or 250 μM; FIG. 9; negative response = indirect vasodilator
Procedure: as §1
The xCELLigence SP system was also used to measure changes in cellular impedance following the treatment of bovine aortic endothelial cells (European Collection of Cell Cultures) with test compound. The method employed is the same for the A10 embryonic vascular smooth muscle cells described above but with the cell culture medium supplemented with 15% fetal bovine serum instead of 10%.
Compounds may interact with vascular endothelial cells causing the release of substances such as nitric oxide and endothelium-derived hyperpolarising factor, which in turn act on the vascular smooth muscle cells causing vasodilatation and lowering blood pressure. Such compounds are termed indirect vasodilators.

[3] = system: Rat (NRK-52E) renal proximal tubule cells; experiment: Rescue of renal proximal tubule cells from cisplatin cytotoxicity (WST-8/CCK-8); type: cell-based; settings: test compound 30 μM; cisplatin 5 μg/ml; 24 or 48 hours; FIG. 10
Procedure: Rat (NRK-52E) renal proximal tubule cells grown in DMEM+10% FBS+1% NEAA+2 mM glutamine were placed in 96 well plates at 10,000 cells/well and incubated at 37° C. with 5% CO2 overnight. Test compounds at a concentration of 30 μM were incubated with human or rat renal proximal tubule cells for 2 hours at 37° C. and 5% CO2. Cis-diamminedichloroplatinum[…] (cisplatin) was then added at […] and each cell population was then incubated for 24 or 48 hours at 37° C. with 5% CO2. Test compounds were maintained at their original concentrations. To assay the cytotoxic effects of cisplatin on the rat renal proximal tubule cells a highly water-soluble tetrazolium salt, WST-8, which is reduced by dehydrogenases in cells to produce formazan, a water-soluble, yellow-coloured indicator dye was used following the manufacturer's instructions (specifically the Cell Count Kit-8 (CCK-8) assay from Sigma). Plate absorbance of the WST-8 (CCK-8) reagent was then measured at 450 nm using a Thermo Scientific Multiskan EX plate reader.

[4] = system: SHR; experiment: Blood pressure in SHR by tail cuff plethysmography; type: in vivo, rat; settings: SHR on 2.2% salt diet; 500 pmol/kg/min in drinking solution; 4 weeks; systolic, FIG. 11
Excerpt: Fourteen week old SHR (on a 2.2% salt diet; Glen Forrest Stockfeeders) were randomly assigned to zero time control (14 week old rats), test compound treatment drinking solution (500 pmol/kg/min in deionised distilled water) or control drinking solution (5% ethanol in deionised distilled water). The rats assigned to zero time control group (14 week old rats) were anaesthetised and had their kidneys and liver harvested while rats assigned to control and test compound treatment were weighed twice weekly and had their drinking solution intake monitored to allow adjustment of the test compound concentration in the drinking solution to maintain a constant dose over the 4-week study period. Blood pressure was measured twice weekly by tail cuff plethysmography (PowerLab, ADInstruments, Castle Hill, NSW, Australia). After 4 weeks rats were anaesthetised (18 week old rats), and their kidneys and liver harvested.

[5] = system: SHR; experiment: Kidney fibrosis in SHR (Masson's trichrome); type: in vivo, rat; settings: SHR on 2.2% salt diet, 500 pmol/kg/min, 4 weeks; for Fibrosis in the kidney compared to 18 week controls: FIG. 12, *p<0.05
Excerpt: (§2) Fourteen week old SHR (on a 2.2% salt diet; Glen Forrest Stockfeeders) were randomly assigned to zero time control (14 week old rats), test compound treatment drinking solution (500 pmol/kg/min in deionised distilled water) or control drinking solution (5% ethanol in deionised distilled water). The rats assigned to zero time control group (14 week old rats) were anaesthetised and had their kidneys and liver harvested while rats assigned to control and test compound treatment were weighed twice weekly and had their drinking solution intake monitored to allow adjustment of the test compound concentration in the drinking solution to maintain a constant dose over the 4-week study period. Blood pressure was measured twice weekly by tail cuff plethysmography (PowerLab, ADInstruments, Castle Hill, NSW, Australia). After 4 weeks rats were anaesthetised (18 week old rats), and their kidneys and liver harvested. To quantitate tissue fibrosis and/or fat content, tissue slices ≤3 mm thick were fixed in 10% buffered formalin for 24 hours, processed and embedded in paraffin. Three micron transverse sections were stained using Masson's trichrome stain. A minimum of 20 random fields at magnification ×20 from transverse sections (5 at each of 2 levels) were digitized and the degree of fibrosis and fat content determined as a percent of field area of each digitized image using Image-Pro Plus V.7 (Media Cybernetics, Bethesda, Md., USA) then averaged to determine the level of fibrosis and/or fat content for each rat.

[6] = system: SHR; experiment: Hepatic fibrosis in SHR (Masson's trichrome); type: in vivo, rat; settings: for Fibrosis in the liver compared to 18 week controls: SHR, 500 pmol/kg/min, 4 weeks, FIG. 13, *p<0.05, **p<0.025, ***p<0.01; for Tissue architecture of portal tracts in Masson's tri-chrome stained liver sections: SHR treated rats vs control, FIG. 14
Excerpt: as §2

[7] = system: SHR; experiment: Hepatic fat content in SHR; type: in vivo, rat; settings: SHR on 2.2% salt diet; 500 pmol/kg/min; 4 weeks; FIG. 15, *p<0.05, **p<0.025, ***p<0.01
Excerpt: as §2

| SMILES | impedance response for A10 vascular smooth muscle cells [1] | impedance response for bovine aortic endothelial cells [2] | Cisplatin induced cell death in renal proximal tubular cells [3] | Blood pressure [4] | Fibrosis in the kidney compared to 18 week controls [5] | Fibrosis in the liver compared to 18 week controls [6] | Fat in the liver compared to 18 week controls [7] | Tissue architecture of portal tracts in Masson's tri-chrome stained liver sections [6] | Fibrosis in the kidney compared to 14 week controls ([5]; FIG. 12, #p<0.05, reversal of established fibrosis) |
| --- | --- | --- | --- | --- | --- | --- | --- | --- | --- |
| NC(=O)CCc1cc(-c2ccc(F)cc2)ccc1-c1cccc(O)c1 [Compound P3, 3-(4″-Fluoro-3-hydroxy-1,1′:4′,1″-terphenyl-2′-yl)propanamide] | Negative impedance responses | Negative impedance responses | decreased | – | – | – | – | – | – |
| Cc1nc(C)c(-c2ccc(-c3cccc(O)c3)c(CCC(N)=O)c2)s1 [Compound P40, 3-(4-(2,4-Dimethylthiazol-5-yl)-3′-hydroxy-[1,1′biphenyl]-2-yl)propanamide] | – | – | decreased | reduced | decreased | decreased | reduced | – | – |
| NC(=O)CCc1cc(-c2cncnc2)ccc1-c1cccc(O)c1 [Compound P26, 3-(3′-Hydroxy-4-(pyrimidin-5-yl)-[1,1-biphenyl]-2-yl)propanamide] | – | Negative impedance responses | decreased | – | decreased | decreased | reduced | normal tissue architecture has been restored | – |
| NC(=O)CCc1cc(-n2cccc2)ccc1-c1cccc(O)c1 [Compound P9, 3-(3′-Hydroxy-4-(1H-pyrrol-1-yl)-[1,1′-biphenyl]-2-yl)propanamide] | Negative impedance responses | Negative impedance responses | decreased | – | decreased | decreased | – | normal tissue architecture has been restored | – |
| Cc1cccc(-c2ccc(-c3cccc(O)c3)c(CCC(N)=O)c2)c1 [Compound P46, 3-(3-Hydroxy-3″-methyl-1,1′:4′,1″-terphenyl-2′-yl)propanamide] | Negative impedance responses | Negative impedance responses | decreased | – | – | – | – | – | – |
| NC(=O)CCc1cc(-c2cccnc2)ccc1-c1cccc(O)c1 [Compound P5, 3-(3′-Hydroxy-4-(pyridin-3-yl)-[1,1′-biphenyl]-2-yl)propanamide] | Negative impedance responses | – | decreased | reduced | decreased | – | – | – | decreased |
| NC(=O)CCc1cc(-c2ccsc2)ccc1-c1cccc(O)c1 [Compound P8, 3-(3′-Hydroxy-4-(thiophen-3-yl)-[1,1′biphenyl]-2-yl)propanamide] | Negative impedance responses | Negative impedance responses | decreased | reduced | decreased | decreased | – | normal tissue architecture has been restored | – |
| NC(=O)CCc1cc(-c2ccoc2)ccc1-c1cccc(O)c1 [Compound P11, 3-(4-(Furan-3-yl)-3′-hydroxy-[1,1′-biphenyl]-2-yl)propanamide] | Negative impedance responses | Negative impedance responses | decreased | – | decreased | decreased | – | – | – |
| NC(=O)CCc1cc(-c2cn[nH]c2)ccc1-c1cccc(O)c1 [Compound P22, 3-(3′-Hydroxy-4-(1H-pyrazol-4-yl)-[1,1′-biphenyl]-2-yl)propanamide] | – | Negative impedance responses | decreased | reduced | decreased | decreased | reduced | – | – |
| NC(=O)CCc1cc(-c2cc(F)cc(F)c2)ccc1-c1cccc(O)c1 [Compound P33, 3-(3″,5″-Difluoro-3-hydroxy-1,1′:4′,1″-terphenyl-2′-yl)propanamide] | Negative impedance responses | Negative impedance responses | decreased | – | – | – | – | – | – |
